Reference: ChEMBL document CHEMBL1130710, “Design and synthesis of a novel class of nucleotide analogs with anti-HCMV activity” (Bioorg Med Chem Lett, 1998)
Values after ≈ are worked out from the molar mass of the structure shown. Values joined by “and” are separate entries in the source; they are usually repeats but may differ in a detail not shown here. Equal entries are not always repeated.

Assays:
F2002 cell line [1] = assay: (§1) Anti-HCMV activity against F2002 cell line; type: functional; conditions: Homo sapiens, read-out: CD50 (the source's name)
F2002 cell line [2] = assay: as §1; type: functional, cell-based, Homo sapiens
F2002 cell line [3] = assay: Compound was tested for Anti-HCMV activity against F2002 cell line(exp 1); type: functional, cell-based; conditions: Homo sapiens
F2002 cell line [4] = assay: Compound was tested for Anti-HCMV activity against F2002 cell line(exp 2); type: functional, cell-based; conditions: Homo sapiens
[5] = Homo sapiens, F2002, read-out: IC50

| IC50 (F2002 cell line [2]; [5]) | IC50 (F2002 cell line [2]; f2002) | IC50 (F2002 cell line [3]) | IC50 (F2002 cell line [4]) | Compound | CC50 (F2002 cell line [1]) |
| --- | --- | --- | --- | --- | --- |
| > 100 mg/L |  |  |  | Nc1ccn(CC2COC(P(=O)(O)O)O2)c(=O)n1 (stereo unspecified) | > 100 mg/L |
| > 30 mg/L |  |  |  | N.Nc1nc(O)c2ncn(C[C@H]3CO[C@H](P(=O)(O)O)O3)c2n1 | > 30 mg/L |
| > 100 mg/L |  |  |  | N.Nc1nc(O)c2ncn(C[C@@H]3CO[C@@H](P(=O)(O)O)O3)c2n1 | > 100 mg/L |
| > 100 mg/L |  |  |  | N.Nc1nc(O)c2ncn(C[C@H]3CO[C@@H](P(=O)(O)O)O3)c2n1 | > 100 mg/L |
|  | 45 mg/L and > 100 mg/L |  |  | N.Nc1nc(O)c2ncn(C[C@@H]3CO[C@H](P(=O)(O)O)O3)c2n1 |  |
|  | 20 mg/L (≈ 63.1 µM) |  |  | Nc1nc(O)c2ncn(CC3COC(P(=O)(O)O)O3)c2n1 (stereo in doubt; 7a) |  |
|  | > 100 mg/L |  |  | Nc1nc(O)c2ncn(CC3COC(P(=O)(O)O)O3)c2n1 (stereo in doubt; 7b) | > 100 mg/L |
| > 100 mg/L |  |  |  | N.O=c1ccn(CC2COC(P(=O)(O)O)O2)c(=O)[nH]1 (stereo unspecified) | > 100 mg/L |
| > 100 mg/L |  |  |  | Nc1ncnc2c1ncn2CC1COC(P(=O)(O)O)O1 (stereo unspecified) | > 100 mg/L |
|  |  | 0.1 mg/L (≈ 0.392 µM) | 0.2 mg/L (≈ 0.784 µM) | Nc1nc2c(ncn2COC(CO)CO)c(=O)[nH]1 [GANCICLOVIR] | > 100 mg/L |
| > 100 mg/L |  |  |  | Cc1cn(CC2COC(P(=O)(O)O)O2)c(=O)[nH]c1=O (stereo unspecified) | > 100 mg/L |
